The text below walks through data of patent publication US8772504B2, “Substituted benzoxazole, benzimidazole, oxazolopyridine and imidazopyridine derivatives as gamma secretase modulators” (Janssen Pharmaceuticals, Inc., priority 2009, dated 2014).

The subject of assay [1] is Aβtotal. As to the kind of experiment: Screening for γ-secretase-modulating activity, Method 1: Aβtotal sandwich ELISA on SKNBE2 cell media. The note with it: SKNBE2 cells carrying APP 695 wild type. Format: cell-based. As to the method:
(§1) Screening was carried out using SKNBE2 cells carrying the APP 695—wild type, grown in Dulbecco's Modified Eagle's Medium/Nutrient mixture F-12 (DMEM/NUT-mix F-12) (HAM) provided by Gibco (cat no. 31330-38) containing 5% Serum/Fe supplemented with 1% non-essential amino acids. Cells were grown to near confluency.
(§2) The screening was performed using the assay as described in Citron et al (1997) Nature Medicine 3: 67. Briefly, cells were plated in a 96-well plate at about 10^5 cells/ml one day prior to addition of compounds. Compounds were added to the cells in Ultraculture (Lonza, BE12-725F) supplemented with 1% glutamine (Invitrogen, 25030-024) for 18 hours. The media were assayed by two sandwich ELISAs, for Aβ42 and Aβtotal. Toxicity of the compounds was assayed by WST-1 cell proliferation reagent (Roche, 1 644 807) according to the manufacturer's protocol.
To quantify the amount of Aβtotal in the cell supernatant, samples and standards were added to a 6E10-coated plate. The plate was allowed to incubate overnight at 4° C. in order to allow formation of the antibody-amyloid complex. Following this incubation and subsequent wash steps a selective anti-Aβ-antibody conjugate (biotinylated 4G8) was added and incubated for a minimum of 1 hour in order to allow formation of the antibody-Amyloid-antibody-complex. After incubation and appropriate wash steps, a Streptavidine-Peroxidase-Conjugate was added, followed 30 minutes later by an addition of Quanta Blu fluorogenic peroxidase substrate according to the manufacturer's instructions (Pierce Corp., Rockford, Ill.).
(§3) To obtain the values reported in Table 3a, the sigmoidal dose response curves were analysed by computerised curve-fitting, with percent of inhibition plotted against compound concentration. A 4-parameter equation (model 205) in XLfit was used to determine the IC50. The top and the bottom of the curve were fixed to 100 and 0, respectively, and the hill slope was fixed to 1. The IC50 represents the concentration of a compound that is required for inhibiting a biological effect by 50% (Here, it is the concentration where Aβ peptide level is reduced by 50%).
(§4) To obtain the values reported in Table 3b, the data were calculated as percentage of the maximum amount of amyloid Beta 42 measured in the absence of the test compound. The sigmoidal dose response curves were analyzed using non-linear regression analysis with percentage of the control plotted against the log concentration of the compound. A 4-parameter equation was used to determine the IC50. The values reported in Table 3b are averaged IC50 values.

Assay [2] relates to Aβ42. As to the kind of experiment: Screening for γ-secretase-modulating activity, Method 1: Aβ42 sandwich ELISA on SKNBE2 cell media. It is filed as cell-based. The note with it: SKNBE2 cells carrying APP 695 wild type. The protocol: as §1, §2
To quantify the amount of Aβ42 in the cell supernatant, commercially available Enzyme-Linked-Immunosorbent-Assay (ELISA) kits were used (Innotest® β-Amyloid(1-42), Innogenetics N.V., Ghent, Belgium). The Aβ42 ELISA was performed essentially according to the manufacturer's protocol. Briefly, the standards (dilutions of synthetic Aβ1-42) were prepared in polypropylene Eppendorf with final concentrations of 8000 down to 3.9 pg/ml (1/2 dilution step). Samples, standards and blanks (100 μl) were added to the anti-Aβ42-coated plate supplied with the kit (the capture antibody selectively recognizes the C-terminal end of the antigen). The plate was allowed to incubate 3 h at 25° C. in order to allow formation of the antibody-amyloid complex. Following this incubation and subsequent wash steps a selective anti-Aβ-antibody conjugate (biotinylated 3D6) was added and incubated for a minimum of 1 hour in order to allow formation of the antibody-Amyloid-antibody-complex. After incubation and appropriate wash steps, a Streptavidine-Peroxidase-Conjugate was added, followed 30 minutes later by an addition of 3,3′,5,5′-tetramethylbenzidine (TMB)/peroxide mixture, resulting in the conversion of the substrate into a coloured product. This reaction was stopped by the addition of sulfuric acid (0.9 N) and the colour intensity was measured by means of photometry with an ELISA-reader with a 450 nm filter.
as §3, §4

Where [3] appears, read: Table 3a, 18 hours, XLfit, top/bottom fixed to 100 and 0, hill slope 1.
Where [4] appears, read: Table 3b, non-linear regression of % of control, averaged IC50 values.
Where [5] appears, read: Homo sapiens, Table 3a, 18 hours, XLfit, top/bottom fixed to 100 and 0, hill slope 1.
Where [6] appears, read: Homo sapiens, Table 3b, non-linear regression of % of control, averaged IC50 values.

In the case of `COc1cccc(-c2nc3c(Nc4ccc(-n5cnc(C)n5)c(OC)c4)cccc3n2C(C)C)c1` [Compound 53], the IC50 was over 1000 nM in assay [1] (setting [3]), over 3000 nM in assay [1] (setting [4]), 22 nM in assay [2] (setting [3]) and 19 nM in assay [2] (setting [4]).
The corresponding values for `COc1cccc(-c2nc3c(Nc4ccc(-n5cnc(C)n5)c(OC)c4)cccc3n2C)c1` [Compound 52] are over 3000 nM, over 3000 nM, 20 nM and 19 nM.
As for `Cc1ncn(-c2ccc(Nc3cc(C(F)(F)F)cc4c3nc(-c3ccc(F)cc3)n4C)cn2)n1` [Compound 14], the IC50 in assay [1] (setting [5]) is over 10000 nM; in assay [1] (setting [6]) it was over 10000 nM; in assay [2] (setting [5]) it was 132 nM; in assay [2] (setting [6]) it was 132 nM.
Consider `COc1cc(Nc2cccc3c2nc(OC(C)C)n3C)ccc1-n1cnc(C)c1` [Compound 31], for which the IC50 in assay [1] (setting [3]) is 29700 nM; in assay [1] (setting [4]), over 30000 nM; in assay [2] (setting [3]) it was 550 nM; in assay [2] (setting [4]) it was 501 nM.
The corresponding values for `COc1cc(Nc2cccc3c2nc(C(C)(C)C)n3C)ccc1-n1cnc(C)c1` [Compound 29] are over 10000 nM, over 10000 nM, 1090 nM and 437 nM.
As for `COCCCc1nc2c(Nc3ccc(-n4cnc(C)c4)c(OC)c3)cccc2n1C` [Compound 32], the IC50 in assay [1] (setting [3]) is over 10000 nM; in assay [1] (setting [4]), over 10000 nM; in assay [2] (setting [3]), 216 nM; in assay [2] (setting [4]) it was 209 nM.
On to `COc1ccc(-c2nc3c(Nc4ccc(-n5cnc(C)c5)c(OC)c4)cccc3n2C)cc1` [Compound 47], for which the IC50 is over 1000 nM in assay [1] (setting [3]), over 3000 nM in assay [1] (setting [4]), 16 nM in assay [2] (setting [3]) and 13 nM in assay [2] (setting [4]).
The like results for `COc1cc(Nc2cccc3c2nc(CC2CCOCC2)n3C)ccc1-n1cnc(C)c1` [Compound 43] were, in that order, over 1000 nM, over 5000 nM, 123 nM and 120 nM.
Turning to `COc1cc(Nc2cccc3oc(C4CCCCC4)nc23)ccc1-n1cnc(C)c1` [Compound 17], the IC50 was over 3000 nM in assay [1] (setting [5]), over 3000 nM in assay [1] (setting [6]), 178 nM in assay [2] (setting [5]) and 174 nM in assay [2] (setting [6]).
Take `Cc1cc2c(nc(-c3ccc(F)cc3)n2C)c(Nc2ccc(-n3ncnc3C)c(F)c2)n1` [Compound 100]: the IC50 in assay [1] (setting [3]) was over 3000 nM; in assay [1] (setting [4]) it was over 10000 nM; in assay [2] (setting [3]) it was 653 nM; in assay [2] (setting [4]), 661 nM.
As to `COc1cc(Nc2cccc3c2nc(C)n3C)ccc1-n1cnc(C)c1` [Compound 19], the IC50 was over 10000 nM in assay [1] (setting [3]), over 10000 nM in assay [1] (setting [4]), 1660 nM in assay [2] (setting [3]) and 1660 nM in assay [2] (setting [4]).
Take `COc1cc(Nc2cccc3c2nc(-c2cccc(OC)c2Cl)n3C)ccc1-n1cnc(C)n1` [Compound 84]: the IC50 in assay [1] (setting [3]) is over 3000 nM; in assay [1] (setting [4]), over 3000 nM; in assay [2] (setting [3]) it was 141 nM; in assay [2] (setting [4]) it was 141 nM.
With `CCOc1cc(C)c(Nc2nc3c(Nc4ccc(-n5cnc(C)c5)c(OC)c4)cccc3n2C)cc1C(C)C` [Compound 60], the IC50 in assay [1] (setting [3]) was over 1000 nM; in assay [1] (setting [4]) it was over 3000 nM; in assay [2] (setting [3]), 14 nM; in assay [2] (setting [4]) it was 14 nM.
For the molecule `COc1cc(Nc2cccc3oc(C(C)(C)C)nc23)ccc1-n1cnc(C)c1` [Compound 30], the IC50 in assay [1] (setting [3]) is over 3000 nM; in assay [1] (setting [4]), over 3000 nM; in assay [2] (setting [3]), 790 nM; in assay [2] (setting [4]), 794 nM.
Take `COc1cc(Nc2cccc3c2nc(CCC(F)(F)F)n3C)ccc1-n1cnc(C)c1` [Compound 34]: the concentration for half-maximal inhibition (IC50) in assay [1] (setting [3]) is over 1000 nM; in assay [1] (setting [4]), over 1000 nM; in assay [2] (setting [3]) it was 51 nM; in assay [2] (setting [4]) it was 43 nM.
With `COc1cc(Nc2cccc3c2nc(COc2ccccc2)n3C)ccc1-n1ncnc1C` [Compound 99], the IC50 in assay [1] (setting [3]) is over 3000 nM; in assay [1] (setting [4]), over 10000 nM; in assay [2] (setting [3]), 436 nM; in assay [2] (setting [4]), 427 nM.
